Source: patent US12415777B2, “Fluorene derivative, and production method and use for same” (Osaka Gas Chemicals Co., Ltd., priority 2020, dated 2025)

Columns and labels:
[1] = 5% mass reduction temperature (TG-DTA); format: physicochemical; details: nitrogen atmosphere, 50 to 400° C., heating rate 10° C./min
Protocol: (5% Mass Reduction Temperature)
The temperature, at which the mass of the sample is reduced by 5% by mass, was measured using a Thermogravimeter-Differential Thermal Analyzer (TG-DTA) (manufactured by PerkinElmer, Inc., “TGA-4000”) in a nitrogen atmosphere, under the condition of a measurement temperature range of 50 to 400° C. with a heating rate of 10° C./min.

[2] = Solvent solubility test; format: physicochemical; set-up: key: A: Soluble; B: Soluble, but undissolved residue was visually confirmed; C: Insoluble; details: 3% by mass, stood overnight at room temperature (15 to 25° C.), visually observed; for Solubility in Dioxane: 1,4-dioxane; for Solubility in IPA: isopropanol; for Solubility in MEK: methyl ethyl ketone; for Solubility in MIBK: methyl isobutyl ketone; for Solubility in THF: tetrahydrofuran
Protocol: (Solvent Solubility Test)
For each sample and solvent, a sample and a solvent shown in Table 1 below were mixed in a concentration of 3% by mass, and a mixture was shaken by hand for about 10 minutes, and then allowed to stand overnight at a room temperature (temperature of 15 to 25° C.). After that, the solubility of the sample was visually observed and evaluated according to the following criteria. • A: Soluble • B: Soluble, but undissolved residue was visually confirmed • C: Insoluble (Flexural Test)
The results of the solubility test of the fluorene derivatives obtained in Examples 1 to 3 and Comparative Example 1 are shown in Table 1. In Table 1, IPA represents isopropanol, MEK represents methyl ethyl ketone, MIBK represents methyl isobutyl ketone, dioxane represents 1,4-dioxane, and THF represents tetrahydrofuran. As NIPAM-FL, the one prepared in Example 3A was used.

| 5% mass reduction temperature [1] | Solubility in Dioxane [2] | Solubility in Acetone [2] | Solubility in Chloroform [2] | Solubility in Ethanol [2] | Solubility in Ethyl acetate [2] | Solubility in Hexane [2] | Solubility in Methanol [2] | Solubility in Toluene [2] | Solubility in Water [2] | Solubility in IPA [2] | Solubility in MEK [2] | Solubility in MIBK [2] | Solubility in THF [2] | Compound |
| --- | --- | --- | --- | --- | --- | --- | --- | --- | --- | --- | --- | --- | --- | --- |
| 318 °C | C | C | A | A | C | C | A | C | C | C | C | A | A | CN(C)C(=O)CCC1(CCC(=O)N(C)C)c2ccccc2-c2ccccc21 [DMAA-FL, 9,9-bis[2-(N,N-dimethylcarbamoyl)ethyl]fluorene] |
| 294 °C | A | A | A | A | A | C | A | A | C | A | A | A | A | CCN(CC)C(=O)CCC1(CCC(=O)N(CC)CC)c2ccccc2-c2ccccc21 [DEAA-FL, 9,9-bis[2-(N,N-diethylcarbamoyl)ethyl]fluorene] |
| 320 °C | C | C | C | C | C | C | C | C | C | C | C | B | C | NC(=O)CCC1(CCC(N)=O)c2ccccc2-c2ccccc21 [AAD-FL, 9,9-di-(β-carbamoyl-ethyl)fluorene, reference compound] |
| 257 °C | C | C | C | C | C | C | A | C | C | C | C | B | C | CC(C)NC(=O)CCC1(CCC(=O)NC(C)C)c2ccccc2-c2ccccc21 [NIPAM-FL, 9,9-bis[2-(N-isopropylcarbamoyl)ethyl]fluorene] |
